Data: PMC6405930, “Conservation of the Amyloid Interactome Across Diverse Fibrillar Structures” (Scientific Reports, 2019)

How the values were obtained:
Ab1 fibrils = system: T1, Ab1 fibrils; assay: Determination of the binding capacity (dye depletion from supernatant); design: species or system human; settings: 2 nmol dye (20 µM) with 10 μg fibril material, one hour
T1 construct: Synthetic amyloid β peptide 1–40 was purchased from Caslo Aps (Lyngby, Denmark); purchased Caslo Aps (Lyngby, Denmark); host or cells: synthetic peptide
Method: (§1) Control samples (without fibril material) were prepared similarly. Fibrils and fibril-bound ligand were pelleted by centrifugation (17,000 g, 30 min) and the supernatant (90 μL) was transferred to a 96 well half-area plate (Corning 3881).

Ab2 fibrils = system: T2, Ab2 fibrils; assay: as above; design: species or system human; settings: 2 nmol dye (20 µM) with 10 μg fibril material, one hour
T2 construct: Two structurally distinct fibrils of the Aβ(1–40) peptide associated with AD
Method: as §1

C-36 fibrils [1] = target: T3, C-36 fibrils (Homo sapiens, UniProt P01009); assay: as above; settings: 2 nmol dye (20 µM) with 10 μg fibril material, one hour
T3 construct: the 36 residue C-terminal fragment of α1-antitrypsin (C-36)
T3 sequence (P01009 383-418 limits assumed): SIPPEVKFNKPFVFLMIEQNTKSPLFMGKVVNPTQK
Method: as §1

glucagon fibrils [2] = target: T4, glucagon fibrils (Homo sapiens, UniProt P01275); assay: as above; settings: 2 nmol dye (20 µM) with 10 μg fibril material, one hour
T4 construct: fibrils of the peptide hormone glucagon
T4 sequence (P01275 53-81 limits assumed): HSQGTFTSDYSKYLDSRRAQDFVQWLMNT
Method: as §1

αSN fibrils [3] = target: T5, αSN fibrils (Homo sapiens, UniProt P37840); assay: as above; settings: 2 nmol dye (20 µM) with 10 μg fibril material, one hour
Method: as §1

[4] = target: fibrils of a short Aβ fragment; design: method as in PMID 23878726; settings: read-out: dissociation constant; cited from earlier work
Ab1 fibrils (Aβ(1–40)) = Ab1 fibrils (Aβ(1–40)) (Homo sapiens, UniProt P05067); assay: Fibril titration with ThT (fluorescence); type: binding
Chain of Ab1 fibrils (Aβ(1–40)) (P05067 672-711): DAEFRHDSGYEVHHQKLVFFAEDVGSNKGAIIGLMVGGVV
Method: (§2) Fibril material (7.5 μg) was set up in 100 μL phosphate buffer in a 96 well half-area NBS plate (NUNC/Terma).

Ab2 fibrils (Aβ(1–40)) = Ab2 fibrils (Aβ(1–40)) (Homo sapiens, UniProt P05067); assay: Fibril titration with ThT (fluorescence); type: binding
Chain of Ab2 fibrils (Aβ(1–40)) (P05067 672-711): as above
Method: as §2

C-36 fibrils [5] = target: T3, C-36 fibrils; assay: Fibril titration with ThT (fluorescence); type: binding
Method: as §2

[6] = system: chymotrypsinogen amorphous aggregates; assay: Fibril titration with ThT (fluorescence); type: binding; settings: TCA-induced amorphous aggregates
Method: as §2

αSN fibrils [7] = target: T5, αSN fibrils; assay: Fibril titration with ThT (fluorescence); type: binding; settings: titration experiment
Method: as §2

glucagon fibrils [8] = target: T4, glucagon fibrils; assay: Fibril titration with ThT (fluorescence); settings: 7.5 μg fibril material, single-site binding model
Method: as §2

FAS4 AD aggregates = system: T6, FAS4 AD aggregates; assay: Fibril titration with ThT (fluorescence); type: binding, human; settings: ThT mixed with FAS4 AD aggregates
T6 construct: a mutated version of the FAS1-4 domain of TGFBIp
Method: as §2

[9] = 7.5 μg fibril material, two-site binding model

Structure (SMILES)	Ligand bound (binding capacity) (Ab1 fibrils) [nmol/mg fibril]	Ligand bound (binding capacity) (Ab2 fibrils) [nmol/mg fibril]	Ligand bound (binding capacity) (C-36 fibrils [1]) [nmol/mg fibril]	Ligand bound (binding capacity) (glucagon fibrils [2]) [nmol/mg fibril]	Ligand bound (binding capacity) (αSN fibrils [3]) [nmol/mg fibril]	Kd [4] [µM]	Imax1 (Ab1 fibrils (Aβ(1–40)); [9])	Imax2 (Ab1 fibrils (Aβ(1–40)); [9])	ThT fluorescence level (Ab1 fibrils (Aβ(1–40)); titration experiment)	Imax1 (Ab2 fibrils (Aβ(1–40)); [9])	Imax2 (Ab2 fibrils (Aβ(1–40)); [9])	ThT fluorescence level (Ab2 fibrils (Aβ(1–40)); titration experiment)	maximum ThT fluorescence intensity (Imax) (C-36 fibrils [5]; 7.5 μg fibril material, single-site binding model)	Kd (C-36 fibrils [5]; 7.5 μg fibril material, single-site binding model, read-out: dissociation constant (kd)) [µM]	ThT fluorescence level (C-36 fibrils [5]; titration experiment)	ThT signal [6]	ThT fluorescence level (αSN fibrils [7])	maximum ThT fluorescence intensity (Imax) (glucagon fibrils [8])	Kd (glucagon fibrils [8]; read-out: dissociation constant (kd)) [µM]	ThT fluorescence (FAS4 AD aggregates)
O=S(=O)(O)c1cc(S(=O)(=O)O)c2c(/N=N/c3ccccc3)c(O)ccc2c1 [Orange-G]	7	4	28	6	6	~50	–	–	–	–	–	–	–	–	–	–	–	–	–	–
Cc1ccc2c(c1)sc(-c1ccc(N(C)C)cc1)[n+]2C [ThT, Thioflavin T]	42	35	10	18	42	–	23,000 rfu	−22,000 rfu	2–5,000 RFU	23,000 rfu	−21,250 rfu	2–5,000 RFU	12,500 rfu	0.63	12,500 RFU	did not result in any ThT signal	2–5,000 RFU	1,000 rfu	1.45	did not detect any fluorescence
